Values quoted from earlier work, collected in US20230010484A1, “METHOD FOR THE DECOLORIZATION OF KERATIN MATERIAL THAT HAS BEEN DYED USING A PIGMENT” (Henkel AG & Co. KGaA, priority 2019, published 2023).

Settings: 25° C.

Row | solubility in water (in words) | SMILES | solubility in water
1 | – | O=S(=O)([O-])c1ccc(N=Nc2c(O)ccc3ccccc23)cc1.[Na+] [Acid Orange 7, sodium salt of 4-[(2-hydroxy-1-naphthyl)azo]benzene sulphonate] | more than 7 g/L
2 | – | Nc1cc(S(=O)(=O)[O-])cc2cc(S(=O)(=O)[O-])c(N=Nc3ccccc3)c(O)c12.[Na+].[Na+] [Acid Red 33, dinatrium salt of 5-amino-4-hydroxy-3-(phenylazo)-naphthalene-2,7-disulphonate] | about 2.5 g/L
3 | – | O=C([O-])c1c(Cl)c(Cl)c(Cl)c(Cl)c1-c1c2c(Br)cc(=O)c(Br)c-2oc2c(Br)c(O)cc(Br)c12.O=C([O-])c1c(Cl)c(Cl)c(Cl)c(Cl)c1-c1c2c(Br)cc(=O)c(Br)c-2oc2c(Br)c(O)cc(Br)c12.[Na+].[Na+] [Acid Red 92, disodium salt of 3,4,5,6-tetrachloro-2-(1,4,5,8-tetrabromo-6-hydroxy-3-oxoxanthen-9-yl)benzoic acid] | greater than 10 g/L
4 | highly soluble | O=C([O-])C1=NN(c2ccc(S(=O)(=O)[O-])cc2)C(=O)C1N=Nc1ccc(S(=O)(=O)[O-])cc1.[Na+].[Na+].[Na+] (stereo not shown) [Acid Yellow 23, trisodium salt of 4,5-dihydro-5-oxo-1-(4-sulfophenyl)-4-((4-sulfophenyl)azo)-1H-pyrazole-3-carboxylic acid] | –
